Assay results: ChEMBL document CHEMBL1629448, “Identification and synthesis of novel inhibitors of acetyl-CoA carboxylase with in vitro and in vivo efficacy on fat oxidation” (J Med Chem, 2010)
Calls of active or inactive are those of the source. The calls are words filed in the database; no cut-off is given here.

Experiments:
Acetyl-CoA carboxylase 1 [1] = target: Acetyl-CoA carboxylase 1 (Rattus norvegicus, UniProt P11497); assay: (§1) Inhibition of N-terminal His-tagged rat recombinant ACC1 expressed in high five insect cells by ATP consumption assay
Acetyl-CoA carboxylase 2 = Acetyl-CoA carboxylase 2 (Homo sapiens, UniProt O00763); assay: Inhibition of N-terminal His-tagged human recombinant ACC2 expressed in high five insect cells by ATP consumption assay
Acetyl-CoA carboxylase 1 [2] = target: Acetyl-CoA carboxylase 1 (Homo sapiens, UniProt Q13085); assay: Inhibition of N-terminal His-tagged human recombinant ACC1 expressed in high five insect cells by ATP consumption assay
[3] = (§2) Inhibition of N-terminal His-tagged rat recombinant ACC2 expressed in high five insect cells by ATP consumption assay
[4] = target: Acetyl-CoA carboxylase 1 (Rattus norvegicus) (UniProt P11497); assay: as §1
Rattus norvegicus = species on record: Rattus norvegicus; assay: as §2

Acetyl-CoA carboxylase 2, sequence (O00763 whole entry): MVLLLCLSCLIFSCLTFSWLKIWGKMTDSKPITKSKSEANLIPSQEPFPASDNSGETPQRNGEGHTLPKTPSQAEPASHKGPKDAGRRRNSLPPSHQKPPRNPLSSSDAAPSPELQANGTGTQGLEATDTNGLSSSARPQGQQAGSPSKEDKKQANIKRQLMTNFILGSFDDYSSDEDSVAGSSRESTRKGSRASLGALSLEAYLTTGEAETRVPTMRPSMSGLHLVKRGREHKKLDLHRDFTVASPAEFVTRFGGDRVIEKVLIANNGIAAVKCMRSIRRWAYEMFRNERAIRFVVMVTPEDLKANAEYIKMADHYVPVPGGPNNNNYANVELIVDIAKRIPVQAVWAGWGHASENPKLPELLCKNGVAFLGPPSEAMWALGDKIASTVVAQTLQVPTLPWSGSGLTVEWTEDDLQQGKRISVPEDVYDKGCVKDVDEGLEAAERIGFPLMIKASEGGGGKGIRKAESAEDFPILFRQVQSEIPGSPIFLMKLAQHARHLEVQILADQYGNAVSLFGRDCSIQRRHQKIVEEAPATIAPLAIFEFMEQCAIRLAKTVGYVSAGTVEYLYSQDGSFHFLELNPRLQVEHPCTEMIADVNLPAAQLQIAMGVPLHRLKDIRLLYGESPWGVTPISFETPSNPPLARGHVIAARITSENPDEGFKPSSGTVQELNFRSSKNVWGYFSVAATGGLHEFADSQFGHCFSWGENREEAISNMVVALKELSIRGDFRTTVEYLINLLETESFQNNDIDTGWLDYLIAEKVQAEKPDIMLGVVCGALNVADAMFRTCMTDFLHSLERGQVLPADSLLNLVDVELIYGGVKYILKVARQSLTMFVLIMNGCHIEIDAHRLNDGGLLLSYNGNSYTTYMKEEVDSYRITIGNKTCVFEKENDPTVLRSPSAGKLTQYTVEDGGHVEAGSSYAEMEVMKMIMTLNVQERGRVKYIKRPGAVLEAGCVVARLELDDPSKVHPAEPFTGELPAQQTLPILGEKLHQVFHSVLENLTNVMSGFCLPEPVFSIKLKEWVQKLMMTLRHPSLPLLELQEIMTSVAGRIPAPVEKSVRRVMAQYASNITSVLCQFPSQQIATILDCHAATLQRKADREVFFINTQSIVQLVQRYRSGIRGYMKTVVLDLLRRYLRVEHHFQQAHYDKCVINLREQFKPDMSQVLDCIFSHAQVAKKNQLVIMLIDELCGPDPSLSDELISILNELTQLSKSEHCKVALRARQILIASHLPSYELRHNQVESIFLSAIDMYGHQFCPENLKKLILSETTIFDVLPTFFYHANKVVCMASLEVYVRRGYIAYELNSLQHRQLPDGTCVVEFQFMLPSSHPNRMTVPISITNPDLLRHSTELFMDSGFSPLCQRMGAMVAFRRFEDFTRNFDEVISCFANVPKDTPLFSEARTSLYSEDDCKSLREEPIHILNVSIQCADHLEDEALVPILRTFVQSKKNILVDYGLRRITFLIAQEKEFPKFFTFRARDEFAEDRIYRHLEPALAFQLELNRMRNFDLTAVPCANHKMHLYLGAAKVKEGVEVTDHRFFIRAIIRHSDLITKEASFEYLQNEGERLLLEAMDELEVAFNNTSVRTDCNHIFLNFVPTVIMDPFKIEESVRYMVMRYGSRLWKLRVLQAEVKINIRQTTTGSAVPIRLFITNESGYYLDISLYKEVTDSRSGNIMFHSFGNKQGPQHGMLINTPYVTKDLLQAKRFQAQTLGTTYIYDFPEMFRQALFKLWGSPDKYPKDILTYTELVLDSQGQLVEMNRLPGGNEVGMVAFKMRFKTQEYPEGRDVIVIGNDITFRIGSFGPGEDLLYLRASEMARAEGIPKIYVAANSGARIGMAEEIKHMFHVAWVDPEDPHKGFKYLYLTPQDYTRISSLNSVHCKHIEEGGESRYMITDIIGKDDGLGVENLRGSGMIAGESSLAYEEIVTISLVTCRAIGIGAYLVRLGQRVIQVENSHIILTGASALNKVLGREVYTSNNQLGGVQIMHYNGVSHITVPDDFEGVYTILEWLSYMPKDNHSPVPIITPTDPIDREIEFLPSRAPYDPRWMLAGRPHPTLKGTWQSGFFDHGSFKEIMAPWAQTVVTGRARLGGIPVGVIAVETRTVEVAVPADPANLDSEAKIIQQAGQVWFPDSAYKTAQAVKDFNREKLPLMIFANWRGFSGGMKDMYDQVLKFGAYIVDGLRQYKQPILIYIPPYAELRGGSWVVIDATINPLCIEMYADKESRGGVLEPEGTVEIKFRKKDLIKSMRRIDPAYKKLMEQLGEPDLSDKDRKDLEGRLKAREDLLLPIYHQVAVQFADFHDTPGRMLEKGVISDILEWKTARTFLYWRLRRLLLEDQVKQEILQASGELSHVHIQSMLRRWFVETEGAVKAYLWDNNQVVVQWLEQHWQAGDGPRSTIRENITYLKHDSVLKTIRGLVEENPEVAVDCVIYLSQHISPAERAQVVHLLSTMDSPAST

CC(=O)NC(C)CCc1ccc(Oc2ccc(OCc3ccccc3)cn2)cc1 (centres undefined)
IC50 (Acetyl-CoA carboxylase 1 [1]): 2.1 µM
IC50 (Acetyl-CoA carboxylase 2): 210 nM
IC50 (Acetyl-CoA carboxylase 1 [2]): 750 nM
IC50 [3]: > 30 µM

CC(=O)NC(C)CCc1ccc(OC2=NCC(OC(C)C)N=C2)cc1 (centres undefined)
IC50 (Acetyl-CoA carboxylase 1 [1]): > 30 µM
IC50 (Acetyl-CoA carboxylase 2): 1200 nM
IC50 (Acetyl-CoA carboxylase 1 [2]): > 30000 nM
IC50 [3]: > 30 µM

CC(=O)NCCCC1OCC(c2cccc3cc(OC4CCCC4)ccc23)CO1 (centres undefined)
inhibition [4]: inactive
IC50 (Acetyl-CoA carboxylase 1 [1]): > 30 µM
IC50 (Acetyl-CoA carboxylase 2): 630 nM
IC50 (Acetyl-CoA carboxylase 1 [2]): > 30000 nM
inhibition (Acetyl-CoA carboxylase 1 [2]): inactive
inhibition (Rattus norvegicus): inactive
IC50 [3]: > 30 µM

CC(=O)NCCC[C@H]1OC[C@H](Oc2ccc(OCc3ccccc3)cn2)CO1
IC50 (Acetyl-CoA carboxylase 1 [1]): 14 µM
IC50 (Acetyl-CoA carboxylase 2): 70 nM
IC50 (Acetyl-CoA carboxylase 1 [2]): 14600 nM
IC50 [3]: > 30 µM

CC(=O)NCCCC1OCC(Cc2cccc(OCCC3CC3)c2)CO1 (centres undefined)
IC50 (Acetyl-CoA carboxylase 1 [1]): > 30 µM
IC50 (Acetyl-CoA carboxylase 2): 2650 nM
IC50 (Acetyl-CoA carboxylase 1 [2]): > 30000 nM
IC50 [3]: > 30 µM

CC(=O)NCCC[C@H]1OC[C@H](Oc2ccc(OC3CCCC3)cc2)CO1
IC50 (Acetyl-CoA carboxylase 1 [1]): 13 µM
IC50 (Acetyl-CoA carboxylase 2): 190 nM
IC50 (Acetyl-CoA carboxylase 1 [2]): 3900 nM
IC50 [3]: 12 µM

CC(=O)NC(C)CCc1ccc(Oc2ccc(OC(C)C)cn2)cc1 (centres undefined)
IC50 (Acetyl-CoA carboxylase 1 [1]): 2.6 µM
IC50 (Acetyl-CoA carboxylase 1 [2]): 1780 nM
IC50 [3]: 4.52 µM

CC(=O)NCCC[C@H]1OC[C@@H](Oc2ccc(OCc3ccccc3)cc2)CO1
IC50 (Acetyl-CoA carboxylase 2): > 30000 nM

CC(C)Oc1ccc(Oc2ccc(CC[C@H](C)NC(=O)C3CC3)cc2)cn1
IC50 (Acetyl-CoA carboxylase 1 [1]): 0.8 µM
IC50 (Acetyl-CoA carboxylase 2): 80 nM
IC50 (Acetyl-CoA carboxylase 1 [2]): 360 nM
IC50 [3]: 0.7 µM

CC(=O)N[C@@H](C)CCc1ccc(Oc2ccc(OC(C)C)cn2)cc1
IC50 (Acetyl-CoA carboxylase 1 [1]): 2.6 µM
IC50 (Acetyl-CoA carboxylase 1 [2]): 1800 nM
IC50 [3]: 6.75 µM

CC(=O)N[C@@H](C)CO[C@H]1CC[C@H](Oc2ccc(OC(C)C)nc2)CC1
IC50 (Acetyl-CoA carboxylase 1 [1]): 10.5 µM
IC50 (Acetyl-CoA carboxylase 2): 60 nM
IC50 (Acetyl-CoA carboxylase 1 [2]): 2300 nM
IC50 [3]: 0.6 µM

CC(=O)NCCCc1ccc(Oc2ccc(OC3CCCC3)cn2)cc1
IC50 (Acetyl-CoA carboxylase 1 [1]): > 30 µM
IC50 (Acetyl-CoA carboxylase 2): 1280 nM
IC50 (Acetyl-CoA carboxylase 1 [2]): > 30000 nM
IC50 [3]: > 30 µM

CC(=O)NCCCC1OCC(Cc2cccc(OCC3CCC3)c2)CO1 (centres undefined)
IC50 (Acetyl-CoA carboxylase 1 [1]): > 30 µM
IC50 (Acetyl-CoA carboxylase 2): 700 nM
IC50 (Acetyl-CoA carboxylase 1 [2]): 21000 nM
IC50 [3]: > 30 µM

CC(=O)NC(C)CCc1ccc(Oc2ccc(OC3CCCC3)cn2)cc1 (centres undefined)
IC50 (Acetyl-CoA carboxylase 1 [1]): 2.9 µM
IC50 (Acetyl-CoA carboxylase 1 [2]): 1100 nM
IC50 [3]: 7.9 µM

CC(=O)NC(C)CCc1ccc(Oc2ccc(OCc3ccccc3)nc2)cc1 (centres undefined)
IC50 (Acetyl-CoA carboxylase 1 [1]): 0.7 µM
IC50 (Acetyl-CoA carboxylase 2): 80 nM
IC50 (Acetyl-CoA carboxylase 1 [2]): 1100 nM
IC50 [3]: 7.9 µM

O=C(c1c2ccccc2cc2ccccc12)N1CCC(N2CCC[C@@H](C(=O)N3CCOCC3)C2)CC1
IC50 (Acetyl-CoA carboxylase 2): 70 nM
IC50 (Acetyl-CoA carboxylase 1 [2]): 910 nM
IC50 [3]: 0.28 µM

CC(=O)N[C@@H](C)CC[C@H]1CC[C@H](Oc2ccc(OC(C)C)nc2)CC1
IC50 (Acetyl-CoA carboxylase 1 [1]): 1.14 µM
IC50 (Acetyl-CoA carboxylase 2): 15 nM
IC50 (Acetyl-CoA carboxylase 1 [2]): 140 nM
IC50 [3]: 0.2 µM

CC(CCc1ccc(Oc2ccc(OC(C)C)nc2)cc1)NC(=O)C1CC1 (centres undefined)
IC50 (Acetyl-CoA carboxylase 1 [1]): 3.2 µM
IC50 (Acetyl-CoA carboxylase 2): 190 nM
IC50 (Acetyl-CoA carboxylase 1 [2]): 620 nM
IC50 [3]: 1.9 µM

CC(CCc1ccc(Oc2ccc(OC(C)C)nc2)cc1)NC=O (centres undefined)
IC50 (Acetyl-CoA carboxylase 1 [1]): 11 µM
IC50 (Acetyl-CoA carboxylase 1 [2]): 5700 nM
IC50 [3]: 17 µM

CC(CCc1ccc(Oc2ccc(OC(C)C)nc2)cc1)NC(N)=O (centres undefined)
IC50 (Acetyl-CoA carboxylase 1 [1]): 2.9 µM
IC50 (Acetyl-CoA carboxylase 1 [2]): 1200 nM
IC50 [3]: 3 µM

CC(=O)NCCCC1OCC(Cc2cccc(OCCc3ccccc3)c2)CO1 (centres undefined)
IC50 (Acetyl-CoA carboxylase 1 [1]): > 30 µM
IC50 (Acetyl-CoA carboxylase 2): 2100 nM
IC50 (Acetyl-CoA carboxylase 1 [2]): > 30000 nM
IC50 [3]: > 30 µM

CC(=O)NCCC[C@H]1OC[C@H](Oc2ccc(OCc3ccccc3)cc2)CO1
IC50 (Acetyl-CoA carboxylase 1 [1]): > 30 µM
IC50 (Acetyl-CoA carboxylase 1 [2]): > 30000 nM
IC50 [3]: > 30 µM

CC(=O)N[C@@H](C)C#Cc1cnc(Oc2ccc(OC(C)C)cc2)s1
IC50 (Acetyl-CoA carboxylase 1 [1]): > 10 µM
IC50 (Acetyl-CoA carboxylase 2): 60 nM
IC50 (Acetyl-CoA carboxylase 1 [2]): > 10000 nM
IC50 [3]: 0.38 µM

CC(=O)NC(C)CCc1ccc(Oc2ccc(OC(C)C)nn2)cc1 (centres undefined)
IC50 (Acetyl-CoA carboxylase 1 [1]): > 30 µM
IC50 (Acetyl-CoA carboxylase 2): 6700 nM
IC50 (Acetyl-CoA carboxylase 1 [2]): 12700 nM
IC50 [3]: > 30 µM

CC(=O)N[C@H](C)CCc1ccc(Oc2ccc(OCc3ccccc3)cn2)cc1
IC50 (Acetyl-CoA carboxylase 2): > 30000 nM

CC(=O)N[C@@H](C)CCc1ccc(Oc2ccc(OCc3ccccc3)cn2)cc1
IC50 (Acetyl-CoA carboxylase 1 [1]): 1.2 µM
IC50 (Acetyl-CoA carboxylase 1 [2]): 920 nM
IC50 [3]: > 30 µM

CC(=O)NC(C)CCc1ccc(Oc2cnc(OC(C)C)nc2)cc1 (centres undefined)
IC50 (Acetyl-CoA carboxylase 1 [1]): 7.4 µM
IC50 (Acetyl-CoA carboxylase 2): 700 nM
IC50 (Acetyl-CoA carboxylase 1 [2]): 3000 nM
IC50 [3]: 20 µM

CC(=O)N[C@H](C)CCc1ccc(Oc2ccc(OC(C)C)nc2)cc1
IC50 (Acetyl-CoA carboxylase 1 [1]): > 30 µM
IC50 (Acetyl-CoA carboxylase 2): 7800 nM
IC50 (Acetyl-CoA carboxylase 1 [2]): 9900 nM
IC50 [3]: > 30 µM

COC(=O)NC(C)CCc1ccc(Oc2ccc(OC(C)C)nc2)cc1 (centres undefined)
IC50 (Acetyl-CoA carboxylase 1 [1]): 2.9 µM
IC50 (Acetyl-CoA carboxylase 2): 250 nM
IC50 (Acetyl-CoA carboxylase 1 [2]): 1200 nM
IC50 [3]: 3.9 µM

CC(=O)NCCCC1OCC(Cc2cccc(OCCC3CCCC3)c2)CO1 (centres undefined)
IC50 (Acetyl-CoA carboxylase 1 [1]): 25 µM
IC50 (Acetyl-CoA carboxylase 2): 270 nM
IC50 (Acetyl-CoA carboxylase 1 [2]): 2700 nM
IC50 [3]: 17 µM
